In ChEMBL document CHEMBL4616684, “Potential Cancer Treatment by Agonists of the Stimulator of Interferon Genes” (ACS Med Chem Lett, 2020) one finds Activity and EC50 data, which are given here for six molecules.

Experiment [1] addresses Stimulator of interferon genes protein (Homo sapiens) (UniProt Q86WV6). Briefly: Agonist activity at STING in human THP1 cells assessed as assessed as increase in IFNbeta secretion at 30 uM measured after 5 hrs by AlphaLISA assay relative to 2'3'-cGAMP. It is filed as cell-based. The note with it: THP-1.
The target of experiment [2] is Stimulator of interferon genes protein (Homo sapiens, UniProt Q86WV6, G230A/R293Q/R71H). Briefly: Activation of full length human STNG R71H/G230A/R293Q mutant expressed in Trichoplusia ni cell membrane incubated for 60 mins followed by addition of [3H]cGAMP by competitive binding assay. It is filed as cell membranes.
Chain of Stimulator of interferon genes protein (Q86WV6 whole entry R71H/G230A/R293Q): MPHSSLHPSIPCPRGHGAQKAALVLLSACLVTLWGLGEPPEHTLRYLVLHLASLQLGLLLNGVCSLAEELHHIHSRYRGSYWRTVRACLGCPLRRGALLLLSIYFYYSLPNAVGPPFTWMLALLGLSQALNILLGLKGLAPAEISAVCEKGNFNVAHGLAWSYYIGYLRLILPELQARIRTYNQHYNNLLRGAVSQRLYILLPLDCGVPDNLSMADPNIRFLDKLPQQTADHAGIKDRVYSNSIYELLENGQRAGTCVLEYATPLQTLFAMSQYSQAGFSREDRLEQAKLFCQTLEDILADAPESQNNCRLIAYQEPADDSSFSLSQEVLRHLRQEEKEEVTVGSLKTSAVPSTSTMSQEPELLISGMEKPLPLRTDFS

Chain of Stimulator of interferon genes protein (Homo sapiens) (Q86WV6 whole entry): as the sequence (Q86WV6 whole entry R71H/G230A/R293Q) above, with H71R, A230G, Q293R counted along it

Consider `COc1cc2sc(C(=O)C[C@H](C)C(=O)O)nc2cc1Br`, for which the Activity in experiment [1] was determined as 11%. This molecule also registered an EC50 in experiment [2] of 10.6 µM.

Take `COc1cc2sc(C(=O)C3CC3C(=O)O)cc2nc1OC` (configuration not stated): in experiment [1], the Activity worked out at 100%. The molecule further returned an EC50 in experiment [2] of 1.15 µM.

Take `COc1cc2nc(C(=O)CCC(=O)O)sc2cc1OC`: the Activity in experiment [1] turned out to be 56%. The EC50 in experiment [2] amounted to 13.3 µM.

For `CCC(CC(=O)c1cc2nc(OC)c(OC)cc2s1)C(=O)O` (configuration not stated), in experiment [1], the Activity turned out to be 85%. Besides, the EC50 in experiment [2] came out at 1.75 µM.

Take `COc1cc2cc(C(=O)CCC(=O)O)sc2nc1OC`: the Activity in experiment [1] worked out at 146%. In experiment [2], this molecule gave an EC50 of 5.51 µM.

As for `COc1cc2sc(C(=O)C[C@H](C)C(=O)O)nc2nc1OC`, in experiment [1], the Activity stood at 14%. Moreover, the concentration giving a half-maximal response (EC50) in experiment [2] amounted to 10.1 µM.
